Data published in patent publication US7303740B2, “Methods for the diagnosis and treatment of breast cancer” (Albert Einstein College of Medicine of Yeshiva University, priority 2000, dated 2007).
Each block holds one molecule with its values, some of them ahead of it.

Assays:
mgNIS [1] = assay: Immunoblot analysis of mgNIS in MG from ovariectomized nubile mice treated with hormones; assay type: in vivo; conditions: for mgNIS expression in mammary tissue (immunoblot): three consecutive days
Experimental: FIG. 4. Immunoblot analysis of MG from ovariectomized nubile mice treated with various hormones. Membrane fractions isolated from MG of nubile mice were either sham treated with PBS (lane 1) or treated for three consecutive days with: progesterone (1 I.U.) (lane 2); 17-β-estradiol (1 μg) (lane 3); 17-β-estradiol and progesterone (1 I.U.) (lane 4); oxytocin (1 I.U.) (lane 5); oxytocin and 17-β-estradiol (lane 6); prolactin (10 I.U.) (lane 7); oxytocin, prolactin, and 17-β-estradiol (lane 8); and progesterone together with oxytocin, prolactin, and 17-β-estradiol (lane 9). Isolated membrane fractions were electrophoresed and electrotransferred onto nitrocellulose, followed by immunoblot analysis with anti-NIS Ab.
Oxytocin (α-hypophamine), prolactin, progesterone (4-pregnene-3,20-dione), and 17-β-estradiol (1,3,5[10]-estratriene-3,17-β-diol) were purchased from Sigma, St. Louis, Mo. Either ovariectomized or surgically unmodified 8- to 10-week-old CD1 (ICR) IBR mice (Charles River Laboratories, Wilmington, Mass.) were treated once a day with subcutaneous injections of 1 I.U. of oxytocin, 10 I.U. of prolactin, 1 μg 17-β-estradiol, or 1 I.U. of progesterone (intraperitoneally) for three consecutive days, either individually or in the indicated combination. A final injection was done on the fourth day; two hours later, mammary glands were removed for analysis. Oxytocin and prolactin were dissolved in sterile distilled water, 17-β-estradiol was dissolved in 90% alcohol, and progesterone was dissolved in sesame oil (Sigma, St. Louis, Mo.). Except for progesterone, indicated doses of hormones were injected after being taken in 200 μl sterile PBS solution. Progesterone (final concentration 10 mg/ml) was injected into 100 μl of sesame oil. Control animals which were sham treated with sesame oil were systematically included in experiments when progesterone was administered. At least three identically-treated animals were analyzed in each case.
Sprague-Dawley female rats (over 8 weeks old) at different physiological stages, and hormonally-treated CD1 (ICR) BR female mice, were sacrificed in a CO2 chamber before excision of thoracic, abdominal, and inguinal MG. Organs, which were removed from mice or rats were blended with a polytron homogenizer (Brinkmann Instruments, Westbury, N.Y.) for 1 min, and homogenized with a stirrer-type glass-teflon homogenizer (Caframo-Wiarton, Ontario, Canada) (Levy et al., 1997). Membrane fractions were prepared in the presence of protease inhibitors, as described above (Kaminsky et al., 1994). SDS-PAGE electrophoresis and electroblotting to nitrocellulose were performed as described in Levy et al. (1997). All samples were diluted 1:2 with loading buffer (Harlow and Lane, 1988) and heated at 37° C. for 30 min prior to electrophoresis. […]

mgNIS [2] = assay: mgNIS expression (immunoblot) and 125I- transport in MG of hormonally treated intact nubile mice; assay type: in vivo; conditions: intact nubile animals
Experimental: (§1) FIG. 3. In vivo effect of oxytocin on functional expression of mgNIS in nubile mice. (A) Radioiodide transport in MG of oxytocin-treated nubile mice. Seven- to eight-week-old female mice were treated subcutaneously with phosphate buffered saline solution (PBS), 10 I.U. of prolactin (PRL), 1 I.U. of oxytocin (OXY), or prolactin and oxytocin (PRL+OXY) for three days. Then, 1 μCi of ^125I^− was injected intraperitoneally. […] (B) Immunoblot analysis of MG from hormonally-treated mice. […] Isolated membrane fractions were electrophoresed, electrotransferred onto nitrocellulose, and analyzed by immunoblots using anti-NIS Ab. […] Perchlorate-inhibited accumulation of ^99mTcO4^− was detected in stomach and MG of OXY-treated animals. (D) Quantification of ^99mTcO4^− accumulation in various organs from OXY- or PBS-treated mice. Tracer accumulation was monitored using image analysis software (ImageQuant, Macintosh). […] Counts were divided by the weight of the organs (cpm/mg tissue), and standardized by dividing them by cpm detected in the blood (cpm/mg blood) of each animal. ^99mTcO4^− accumulation in the organs from: PBS-treated animals (open bars); OXY-treated animals (dotted bars); and OXY-treated animals after ^99mTcO4^−+perchlorate injection (dark bars). […]

mgNIS [3] = target: T1, mgNIS (Mus musculus, UniProt Q99PN0); assay: Ex vivo scintigraphic imaging of 99mTcO4- accumulation in organs of oxytocin-treated nubile mice; design: Membrane fractions isolated from MG of nubile female mice; from tissue; host or cells: CD1 (ICR) mice (intact, ovariectomized, gestating) and MMTV-ras / MMTV-neu transgenic mice: mammary gland, mammary adenocarcinoma, stomach; conditions: organs removed 30 min after tracer
T1 sequence (Q99PN0 1-618): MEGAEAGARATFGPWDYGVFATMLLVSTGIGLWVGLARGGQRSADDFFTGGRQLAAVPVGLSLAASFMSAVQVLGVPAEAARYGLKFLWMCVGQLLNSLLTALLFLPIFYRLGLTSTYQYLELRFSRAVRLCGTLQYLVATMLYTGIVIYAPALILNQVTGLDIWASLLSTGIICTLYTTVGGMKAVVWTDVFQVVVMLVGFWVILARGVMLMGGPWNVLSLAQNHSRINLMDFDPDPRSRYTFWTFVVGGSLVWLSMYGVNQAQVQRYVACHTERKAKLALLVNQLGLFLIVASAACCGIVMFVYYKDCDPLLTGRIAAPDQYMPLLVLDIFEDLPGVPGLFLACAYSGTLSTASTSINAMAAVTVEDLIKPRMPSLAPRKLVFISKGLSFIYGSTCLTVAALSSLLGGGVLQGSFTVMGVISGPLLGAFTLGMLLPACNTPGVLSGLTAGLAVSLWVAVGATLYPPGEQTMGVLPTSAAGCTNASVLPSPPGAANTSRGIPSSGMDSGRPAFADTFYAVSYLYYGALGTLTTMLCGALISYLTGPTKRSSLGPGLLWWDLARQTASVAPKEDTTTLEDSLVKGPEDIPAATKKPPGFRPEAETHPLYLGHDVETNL
Experimental: as §1

Molecule: C[C@]12CC[C@@H]3c4ccc(O)cc4CC[C@H]3[C@@H]1CC[C@@H]2O [17-β-estradiol, 1,3,5[10]-estratriene-3,17-β-diol]
mgNIS expression in mammary tissue (immunoblot) (mgNIS [1]): clearly discernible increase

perchlorate-inhibited 99mTcO4- accumulation in MGs versus sham-treated mice (mgNIS [3]): significantly higher
Molecule: CC[C@H](C)[C@@H]1NC(=O)[C@H](Cc2ccc(O)cc2)NC(=O)[C@@H](N)CSSC[C@@H](C(=O)N2CCC[C@H]2C(=O)N[C@@H](CC(C)C)C(=O)NCC(N)=O)NC(=O)[C@H](CC(N)=O)NC(=O)[C@H](CCC(N)=O)NC1=O [oxytocin, α-hypophamine]
mgNIS expression in mammary tissue (immunoblot) (mgNIS [1]): did not cause an increase
mgNIS expression in MG (immunoblot), leading to 125I- transport (mgNIS [2]; 1 I.U. s.c. for three days): induced mgNIS expression

Molecule: CC(=O)[C@H]1CC[C@H]2[C@@H]3CCC4=CC(=O)CC[C@]4(C)[C@H]3CC[C@]12C [progesterone, 4-pregnene-3,20-dione]
effect on 17-β-estradiol enhancement of mgNIS expression (mgNIS [1]): did not interfere
mgNIS expression when added to the 17-β-estradiol/oxytocin/prolactin combination (mgNIS [1]): significantly decreased

B1: prolactin: a glycoprotein released from the anterior pituitary (protein, UniProt P01236 29-227, looked up)
Prolactin: LPICPGGAARCQVTLRDLFDRAVVLSHYIHNLSSEMFSEFDKRYTHGRGFITKAINSCHTSSLATPEDKEQAQQMNQKDFLSLIVSILRSWNEPLYHLVTEVRGMQEAPEAILSKAVEIEEQTKRLLEGMELIVSQVHPETKENEIYPVWSGLPSLQMADEESRLSAYYNLLHCLRRDSHKIDNYLKLLKCRIIHNNNC
effect on upregulation of mgNIS by oxytocin (mgNIS [2]; 10 I.U. prolactin with 1 I.U. oxytocin): antagonized
